Our source for the RP-LC retention time values is the METLIN SMRT retention time set (Domingo-Almenara et al. 2019).

The series in a line: gradient 5% acetonitrile 3 min, to 50% in 2 min, to 85% in 15 min, held 3 min, 100 µL/min. The note with it: column: Zorbax Extend-C18 2.1 x 50 mm; eluents: water / acetonitrile, 0.1% formic acid. A digest of the protocol: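 Pure standards were analyzed in mixtures of ~100 molecules using HPLC coupled to a quadrupole time-of-flight mass spectrometer, in both positive and negative ionization mode. Separation used a Zorbax Extend-C18 column (2.1 × 50 mm, 1.8 μm) at 100 μL/min, with water and acetonitrile each containing 0.1% formic acid. Dead and dwell volumes were 40 μL and 900 μL, and data were collected over 3 months. Retention time was read from computationally picked adduct peaks, each inspected manually.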
`Cc1ccc(CNC(=O)C2CCCN(c3nc4ccsc4c(=O)n3Cc3ccc(F)cc3)C2)cc1` (centres undefined) returned an RP-LC retention time of 1010 s.

As to `CN(C)c1ccc(NC(=O)c2ccco2)cc1`, the RP-LC retention time turned out to be 532 s.

Compound `COc1ccc(-n2ccnc(NC(=O)Nc3cccc(F)c3)c2=O)cc1OC` came in with an RP-LC retention time of 882 s.

`O=C1CCCN1c1ccc(Cn2cccc(S(=O)(=O)N3CCCC3)c2=O)cc1` registered an RP-LC retention time of 696 s.

With `COc1ccc(-c2c(C)noc2NC(C)=O)cc1S(=O)(=O)NCc1ccc(C)cc1`, the RP-LC retention time stood at 784 s.

Regarding `Cc1ccc(-c2ccc(-n3nc(C)c(S(=O)(=O)N4CCC(C)CC4)c3C)nn2)cc1`, the RP-LC retention time was 1260 s.

On to `CC(C)(C)c1ccc(-c2noc(-c3nn(-c4cccc(F)c4)ccc3=O)n2)cc1`, for which the RP-LC retention time was 1140 s.

As for `COc1ccc2c(C)c(CCC(=O)N[C@@H](C(=O)O)C(C)C)c(=O)oc2c1C`, the RP-LC retention time turned out to be 746 s.

Regarding `Cc1cccc(-c2nc(C)c3c(n2)N(Cc2cccnc2)C(=O)CC3)c1`, the RP-LC retention time was found to be 722 s.

As to `Cn1nc(-c2nnc(-c3ccccc3F)o2)c2c1CCN(S(=O)(=O)c1ccc(Cl)cc1)C2`, the RP-LC retention time was determined as 979 s.

With `O=C(Cn1c(=O)oc2ccccc21)NCC1CCN(C(=O)c2cc3ccccc3o2)CC1`, the RP-LC retention time was 738 s.

`CC(=O)c1ccc(NC(=O)Cn2c(-c3ccc(F)cc3)nc(C)cc2=O)cc1` gave an RP-LC retention time of 953 s.

The compound `CCC(=O)Nc1ccc2c(c1)nc(CN1CCCC1)n2C(C)C` had an RP-LC retention time of 581 s.

`O=C(Cc1csc(-n2cccc2)n1)NCCc1c[nH]c2ccccc12` returned an RP-LC retention time of 840 s.

Compound `O=C(CSc1ccc(N2CCCC(C(=O)NC3CC3)C2)nn1)Nc1cccc(Br)c1` (centres undefined) showed an RP-LC retention time of 664 s.

The compound `CSc1cccc(N2C=C(C(=O)N3CCCC3)S(=O)(=O)c3ccccc32)c1` had an RP-LC retention time of 819 s.

Regarding `CSc1ccc(CNC(=O)C2c3ccccc3CCN2C(C)=O)cc1` (centres undefined), the RP-LC retention time stood at 790 s.

The compound `CNC(=O)C1CCCN(c2nc3ncn(CC(=O)Nc4ccc5c(c4)CCC5)c(=O)c3s2)C1` (centres undefined) displayed an RP-LC retention time of 688 s.

In the case of `COc1cccc(-c2noc(C3CCCN3C(=O)c3ccoc3)n2)c1` (centres undefined), the RP-LC retention time amounted to 854 s.

The compound `CCCS(=O)(=O)c1nc2ccc(NS(=O)(=O)c3ccc(C(C)C)cc3)cc2s1` returned an RP-LC retention time of 1050 s.

Take `Cn1ccc2c(cc(C(=O)N3CCN(c4ccc(F)cc4)CC3)n2C)c1=O`: the RP-LC retention time stood at 689 s.

Consider `CCN1CCN(c2nc(-c3cccnc3)nc3ccccc23)CC1`, for which the RP-LC retention time turned out to be 524 s.

`COCCNC(=O)C1COC2(CCCCC2)N1C(=O)c1cccc(F)c1` (centres undefined) displayed an RP-LC retention time of 719 s.

For `CCOCCCNCc1ccc(-c2cccc(Cl)c2)o1`, the RP-LC retention time amounted to 687 s.

`Cc1ccc(C(C)NC(=O)c2cn3c(n2)CCCC3)c(C)c1` (centres undefined) registered an RP-LC retention time of 642 s.

`CCc1nc(NC(=O)Cn2nc3c(cc2=O)CCCC3)sc1C` registered an RP-LC retention time of 764 s.

`CCN1CCCn2nc(C3CCN(S(=O)(=O)c4cnc[nH]4)CC3)cc2C1=O` gave an RP-LC retention time of 592 s.

As to `COc1ccc(Cn2nc3c(S(=O)(=O)N4CCCCCC4)cccn3c2=O)cc1`, the RP-LC retention time stood at 909 s.

Consider `CCc1noc(NC(C)=O)c1-c1ccc(OC)c(S(=O)(=O)N2CCC(C)CC2)c1`, for which the RP-LC retention time stood at 864 s.

For `CCOc1ccccc1CNC(=O)CCc1c(-c2ccc(Br)cc2)nc2ccccn12`, the RP-LC retention time was 744 s.

`CN(C(=O)C(=O)Nc1ccc2nc3n(c(=O)c2c1)CCCCC3)c1ccccc1F` returned an RP-LC retention time of 746 s.

`Cc1ccc(NC(=O)C2CCCN(c3ccc(-n4ccnc4)nn3)C2)cc1F` (centres undefined) came in with an RP-LC retention time of 597 s.

In the case of `COc1ccccc1CCNC(=O)Cn1cc(S(=O)(=O)c2ccccc2)c2ccccc21`, the RP-LC retention time is 898 s.

In the case of `COc1ccc(NC(=O)Cn2ccc3sccc3c2=O)cc1`, the RP-LC retention time was 706 s.

As to `CCCC(=O)N1C[C@H]2C[C@H](C1)[C@H]1CCCC(=O)N1C2`, the RP-LC retention time turned out to be 601 s.

`CSc1ccc(C2c3[nH]c4ccccc4c3CCN2C(=O)c2cccs2)cc1` (centres undefined) displayed an RP-LC retention time of 1220 s.

`Cc1cc(F)ccc1NC(=O)C1CCN(C(=O)c2ncn3c2COC(c2ccc(F)cc2)C3)CC1` (centres undefined) yielded an RP-LC retention time of 736 s.

`Cc1nn(CC(=O)N2CCOCC2)c(=O)c2c(-n3cccc3)n(-c3cccc(F)c3)nc12` had an RP-LC retention time of 733 s.

`NC(=O)c1cc[nH]c1C1CCCN(Cc2ccc(Br)o2)C1` (centres undefined) returned an RP-LC retention time of 594 s.

On to `CCOc1ccc(N2CC(c3nc(-c4ccccc4Cl)no3)CC2=O)cc1` (centres undefined), for which the RP-LC retention time is 1000 s.

Regarding `O=C(c1ccc2ncnc(N3CCCC3)c2c1)N1CCN(c2ccccc2)CC1`, the RP-LC retention time was determined as 646 s.

Regarding `O=C(Nc1cccc(Cl)c1)c1c(O)c2cccnc2n(-c2ccccc2)c1=O`, the RP-LC retention time came out at 1340 s.

`COc1cccc(COc2cn(C)c(C(=O)Nc3ccc4c(c3)OCCO4)cc2=O)c1` registered an RP-LC retention time of 675 s.

Consider `O=C([C@@H]1C[C@H](F)CN1C(=O)NCc1ccco1)N1CCCCC1`, for which the RP-LC retention time is 631 s.

In turn, `Cc1cc(C)cc(S(=O)(=O)Nc2ccc3nc(N4CCN(C)CC4)cc(C(=O)O)c3c2)c1` showed an RP-LC retention time of 612 s.

In turn, `CS(=O)(=O)N(C1CCOCC1)C1CN(C(=O)COc2ccccc2)C1` yielded an RP-LC retention time of 692 s.

As to `CCOC(=O)c1[nH]c(C)c(CCC(=O)N2CCN(C(=O)c3ccco3)CC2)c1C`, the RP-LC retention time was found to be 709 s.

Regarding `CCCn1cc(CCNS(=O)(=O)c2cccc(C(F)(F)F)c2)c2cccnc21`, the RP-LC retention time came out at 904 s.

Regarding `Nc1nc(N)c(-c2cccc(C(F)(F)F)c2)c(Cc2cccc(C(F)(F)F)c2)n1`, the RP-LC retention time worked out at 741 s.

Consider `CCOc1cc(Cl)c(S(=O)(=O)NCc2ccccn2)cc1Cl`, for which the RP-LC retention time is 715 s.

As for `O=C(Nc1cnn(-c2ncc(N3CCCCC3)cn2)c1)NC1CCCC1`, the RP-LC retention time worked out at 754 s.

Turning to `O=C(C1CCN(S(=O)(=O)c2cc(-c3noc(C4CCC4)n3)cs2)CC1)N1CCc2ccccc21`, the RP-LC retention time came out at 1150 s.

`Cc1ccc2ncn(C3CCN(S(=O)(=O)c4ccccc4F)CC3)c(=O)c2c1` displayed an RP-LC retention time of 940 s.

For `Cc1ccc2nc3c(c(C(=O)NC4CC4)c2c1)CCCC3`, the RP-LC retention time turned out to be 584 s.

In turn, `Cc1cc(=O)n(CC(=O)Nc2ccc(F)cc2C)c(N2CCCCC2)n1` returned an RP-LC retention time of 695 s.

The compound `Oc1c(C(Nc2nccs2)c2ccc(F)cc2)ccc2cccnc12` (centres undefined) registered an RP-LC retention time of 654 s.

For the compound `COc1cccc(-c2ccnc3nc(C4CCC4)nn23)c1`, the RP-LC retention time stood at 868 s.

`O=C(Nc1ccc(F)cc1)C1CCCN(c2ccc3cc(S(=O)(=O)N4CCCCC4)ccc3n2)C1` (centres undefined) came in with an RP-LC retention time of 883 s.

For `CC1CN2C=NC(N3CCN(S(=O)(=O)Cc4cccc(Cl)c4)CC3)=CC2=N1` (centres undefined), the RP-LC retention time turned out to be 627 s.
